{"source": "patent US20140303092A1", "about": "(CHIMERIX, INC., priority 2011, published 2014)", "set-up": "species or system human", "conditions": "in vivo", "description": "Plasma samples were collected during the study to assess weekly trough concentrations of HDP-CDV and CDV. […] There was no evidence for increasing weekly trough CDV plasma concentrations; therefore, plasma concentrations are not presented in this document.", "data": [{"smiles": "CCCCCCCCCCCCCCCCOCCCOP(=O)(O)COC(CO)Cn1ccc(N)nc1=O", "note": "(stereo not shown) [HDP-CDV]", "values": [{"measurement": "weekly trough HDP-CDV concentrations", "value": "near or below the lower limit of quantification"}]}]}
